26 compounds from US10259808B2 (Genentech, Inc., priority 2015, dated 2019) can be followed below.

For the assay, the target named is T1, RORc ligand binding domain (Homo sapiens, UniProt P51449).
T1 sequence (P51449 269-508 limits assumed): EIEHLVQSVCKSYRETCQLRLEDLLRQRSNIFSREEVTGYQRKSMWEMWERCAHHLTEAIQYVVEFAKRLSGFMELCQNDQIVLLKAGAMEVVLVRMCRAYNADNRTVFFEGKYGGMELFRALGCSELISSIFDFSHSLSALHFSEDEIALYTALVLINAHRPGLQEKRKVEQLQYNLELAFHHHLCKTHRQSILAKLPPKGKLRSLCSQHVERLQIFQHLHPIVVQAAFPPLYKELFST
Kind of assay: In vitro RORc ligand binding assay (25-[3H]hydroxycholesterol displacement).
As to `C[C@H]1CC[C@H](c2ccccc2)S(=O)(=O)N1Cc1cc(F)c(C2(Nc3ncccn3)COC2)cc1F` [Example 101, N-[3-[2,5-difluoro-4-[[(3S,6R)-3-methyl-1,1-dioxo-6-phenyl-thiazinan-2-yl]methyl]phenyl]oxetan-3-yl]pyrimidin-2-amine], the concentration for half-maximal inhibition (IC50) is 60.7 nM. In other words, the double-digit nanomolar range.
Turning to `C[C@H]1CC[C@H](c2ccccc2)S(=O)(=O)N1Cc1cc(F)c(C2(N3CCOC3=O)CCOCC2)cc1F` [Example 102, 3-[4-[2,5-difluoro-4-[[(3S,6R)-3-methyl-1,1-dioxo-6-phenyl-thiazinan-2-yl]methyl]phenyl]tetrahydropyran-4-yl]oxazolidin-2-one], the concentration for half-maximal inhibition (IC50) is 55.3 nM. The IC50 values of the last two compounds are within 1.5-fold of each other.
`C[C@H]1CC[C@H](c2ccccc2)S(=O)(=O)N1Cc1cc(F)c(C2(NCc3ccon3)COC2)cc1F` [Example 103, 3-[2,5-difluoro-4-[[(3S,6R)-3-methyl-1,1-dioxo-6-phenyl-thiazinan-2-yl]methyl]phenyl]-N-(isoxazol-3-ylmethyl)oxetan-3-amine] came in with an IC50 of 1.5 nM.
As for `C[C@H]1CC[C@H](c2ccccc2)S(=O)(=O)N1Cc1cc(F)c(C2(NC(=O)Cc3ccon3)CCOCC2)cc1F` [Example 104, N-[4-[2,5-difluoro-4-[[(3S,6R)-3-methyl-1,1-dioxo-6-phenyl-thiazinan-2-yl]methyl]phenyl]tetrahydropyran-4-yl]-2-isoxazol-3-yl-acetamide], the 50% inhibitory concentration (IC50) came to 2.6 nM.
The compound `C[C@H]1CC[C@H](c2ccccc2)S(=O)(=O)N1Cc1cc(F)c(C2(Nc3cnccn3)COC2)cc1F` [Example 105, N-[3-[2,5-difluoro-4-[[(3S,6R)-3-methyl-1,1-dioxo-6-phenyl-thiazinan-2-yl]methyl]phenyl]oxetan-3-yl]pyrazin-2-amine] registered a concentration for half-maximal inhibition (IC50) of 2.2 nM.
With `C[C@H]1CC[C@H](c2ccccc2)S(=O)(=O)N1Cc1cc(F)c(C2(NC(=O)c3cc(=O)[nH]o3)COC2)cc1F` [Example 106, N-[3-[2,5-difluoro-4-[[(3S,6R)-3-methyl-1,1-dioxo-6-phenyl-thiazinan-2-yl]methyl]phenyl]oxetan-3-yl]-3-oxo-isoxazole-5-carboxamide], the IC50 was 5.1 nM.
Under `C[C@H]1CC[C@H](c2ccccc2)S(=O)(=O)N1Cc1cc(F)c(C2(NC(=O)c3ccon3)CCOCC2)cc1F` [Example 107, N-[4-[2,5-difluoro-4-[[(3S,6R)-3-methyl-1,1-dioxo-6-phenyl-thiazinan-2-yl]methyl]phenyl]tetrahydropyran-4-yl]isoxazole-3-carboxamide] stands 2.7 nM.
Under `Cc1cncc(C(=O)NC2(c3cc(F)c(CN4[C@@H](C)CC[C@H](c5ccccc5)S4(=O)=O)cc3F)CCOCC2)n1` [Example 108, N-[4-[2,5-difluoro-4-[[(3S,6R)-3-methyl-1,1-dioxo-6-phenyl-thiazinan-2-yl]methyl]phenyl]tetrahydropyran-4-yl]-6-methyl-pyrazine-2-carboxamide] stands 19.2 nM; under `Cc1cncc(C(=O)NC2(c3cc(F)c(CN4[C@@H](C)CC[C@H](c5ccccc5)S4(=O)=O)cc3F)COC2)n1` [Example 109, N-[3-[2,5-difluoro-4-[[(3S,6R)-3-methyl-1,1-dioxo-6-phenyl-thiazinan-2-yl]methyl]phenyl]oxetan-3-yl]-6-methyl-pyrazine-2-carboxamide], 112 nM; under `Cc1cc(COC2(c3cc(F)c(CN4[C@@H](C)CC[C@H](c5ccccc5)S4(=O)=O)cc3F)COC2)no1` [Example 110, (3S,6R)-2-[[2,5-difluoro-4-[3-[(5-methylisoxazol-3-yl)methoxy]oxetan-3-yl]phenyl]methyl]-3-methyl-6-phenyl-thiazinane 1,1-dioxide], 1.3 nM.
As to `C[C@H]1CC[C@H](c2ccccc2)S(=O)(=O)N1Cc1cc(F)c(C2(NC[C@@H]3CCC(=O)N3)COC2)cc1F` [Example 111, (5S)-5-[[[3-[2,5-difluoro-4-[[(3S,6R)-3-methyl-1,1-dioxo-6-phenyl-thiazinan-2 yl]methyl]phenyl]oxetan-3-yl]amino]methyl]pyrrolidin-2-one], the concentration for half-maximal inhibition (IC50) stood at 89.8 nM.
Compound `COC1(OC)CC(c2nnc[nH]2)(c2cc(F)c(CN3[C@@H](C)CC[C@H](c4ccccc4)S3(=O)=O)cc2F)C1` [Example 112, (3S,6R)-2-[[4-[3,3-dimethoxy-1-(4H-1,2,4-triazol-3-yl)cyclobutyl]-2,5-difluoro-phenyl]methyl]-3-methyl-6-phenyl-thiazinane 1,1-dioxide] came in with an IC50 of 4.6 nM.
`C[C@H]1CC[C@H](c2ccccc2)S(=O)(=O)N1Cc1cc(F)c(C2(c3nnc[nH]3)CC(=O)C2)cc1F` [Example 113, 3-[2,5-difluoro-4-[[(3S,6R)-3-methyl-1,1-dioxo-6-phenyl-thiazinan-2-yl]methyl]phenyl]-3-(4H-1,2,4-triazol-3-yl)cyclobutanone] registered a half-maximal inhibitory concentration (IC50) of 8.1 nM.
`C[C@H]1CC[C@H](c2ccccc2)S(=O)(=O)N1Cc1cc(F)c(C2(c3nnc[nH]3)CC(F)(F)C2)cc1F` [Example 114, (3S,6R)-2-[[4-[3,3-difluoro-1-(4H-1,2,4-triazol-3-yl)cyclobutyl]-2,5-difluoro-phenyl]methyl]-3-methyl-6-phenyl-thiazinane 1,1-dioxide] registered a concentration for half-maximal inhibition (IC50) of 3.6 nM.
The compound `C[C@H]1CC[C@H](c2ccccc2)S(=O)(=O)N1Cc1cc(F)c([C@]2(c3nnc[nH]3)C[C@@H](O)C2)cc1F` [Example 115, 3-[2,5-difluoro-4-[[(3S,6R)-3-methyl-1,1-dioxo-6-phenyl-thiazinan-2-yl]methyl]phenyl]-3-(4H-1,2,4-triazol-3-yl)cyclobutanol] returned a half-maximal inhibitory concentration (IC50) of 7.8 nM.
Take `C[C@H]1CC[C@H](c2ccccc2)S(=O)(=O)N1Cc1cc(F)c([C@]2(c3nnc[nH]3)C[C@H](O)C2)cc1F` [Example 116, 3-[2,5-difluoro-4-[[(3S,6R)-3-methyl-1,1-dioxo-6-phenyl-thiazinan-2-yl]methyl]phenyl]-3-(4H-1,2,4-triazol-3-yl)cyclobutanol]: the concentration for half-maximal inhibition (IC50) came to 37.9 nM.
In turn, `C[C@H]1CC[C@H](c2ccccc2)S(=O)(=O)N1Cc1cc(F)c(C2(N3CC(=O)NC3=O)COC2)cc1F` [Example 117, 1-[3-[2,5-difluoro-4-[[(3S,6R)-3-methyl-1,1-dioxo-6-phenyl-thiazinan-2-yl]methyl]phenyl]oxetan-3-yl]imidazolidine-2,4-dione] showed an IC50 of 25.9 nM.
Then `C[C@H]1CC[C@H](c2ccccc2)S(=O)(=O)N1Cc1cc(F)c(C2(Nc3cnccn3)CCOCC2)cc1F` [Example 118, N-[4-[2,5-difluoro-4-[[(3S,6R)-3-methyl-1,1-dioxo-6-phenyl-thiazinan-2-yl]methyl]phenyl]tetrahydropyran-4-yl]pyrazin-2-amine], with 5.2 nM.
The compound `C[C@H]1CC[C@H](c2ccccc2)S(=O)(=O)N1Cc1cc(F)c(C2(c3n[nH]c(=O)o3)CC(=O)C2)cc1F` [Example 119, 5-[1-[2,5-difluoro-4-[[(3S,6R)-3-methyl-1,1-dioxo-6-phenyl-thiazinan-2-yl]methyl]phenyl]-3-oxo-cyclobutyl]-3H-1,3,4-oxadiazol-2-one] yielded an IC50 of 1.8 nM.
In turn, `COC1(OC)CC(c2n[nH]c(=O)o2)(c2cc(F)c(CN3[C@@H](C)CC[C@H](c4ccccc4)S3(=O)=O)cc2F)C1` [Example 120, 5-[1-[2,5-difluoro-4-[[(3S,6R)-3-methyl-1,1-dioxo-6-phenyl-thiazinan-2-yl]methyl]phenyl]-3,3-dimethoxy-cyclobutyl]-3H-1,3,4-oxadiazol-2-one] showed an IC50 of 5.7 nM.
Regarding `C[C@H]1CC[C@H](c2ccccc2)S(=O)(=O)N1Cc1cc(F)c(C2(c3n[nH]c(=O)o3)CC2)cc1F` [Example 121, 5-[1-[2,5-difluoro-4-[[(3S,6R)-3-methyl-1,1-dioxo-6-phenyl-thiazinan-2-yl]methyl]phenyl]cyclopropyl]-3H-1,3,4-oxadiazol-2-one], the IC50 was 19.5 nM. This IC50 lies about 3.4-fold higher than the previous one.
Take `C[C@H]1CC[C@H](c2ccccc2)S(=O)(=O)N1Cc1cc(F)c(C2(OCc3nnc[nH]3)CC3(COC3)C2)cc1F` [Example 122, (3S,6R)-2-[[2,5-difluoro-4-[6-(4H-1,2,4-triazol-3-ylmethoxy)-2-oxaspiro[3.3]heptan-6-yl]phenyl]methyl]-3-methyl-6-phenyl-thiazinane 1,1-dioxide]: the IC50 stood at 2.7 nM.
For the compound `C[C@H]1CC[C@H](c2ccccc2)S(=O)(=O)N1Cc1cc(F)c([C@]2(c3n[nH]c(=O)o3)C[C@H](O)C2)cc1F` [Example 123, trans-5-[1-[2,5-difluoro-4-[[(3S,6R)-3-methyl-1,1-dioxo-6-phenyl-thiazinan-2-yl]methyl]phenyl]-3-hydroxy-cyclobutyl]-3H-1,3,4-oxadiazol-2-one], the half-maximal inhibitory concentration (IC50) was found to be 1.8 nM. Against the preceding compound, the IC50 is about 1.5-fold lower.
Compound `C[C@H]1CC[C@H](c2ccccc2)S(=O)(=O)N1Cc1cc(F)c([C@]2(c3n[nH]c(=O)o3)C[C@@H](O)C2)cc1F` [Example 124, cis-5-[1-[2,5-difluoro-4-[[(3S,6R)-3-methyl-1,1-dioxo-6-phenyl-thiazinan-2-yl]methyl]phenyl]-3-hydroxy-cyclobutyl]-3H-1,3,4-oxadiazol-2-one] came in with a half-inhibitory concentration (IC50) of 2.1 nM.
Under `C[C@H]1CC[C@H](c2ccccc2)S(=O)(=O)N1Cc1cc(F)c(C2(NCC3COC(=O)N3)COC2)cc1F` (stereo partly drawn) [Example 125, 4-[[[3-[2,5-difluoro-4-[[(3S,6R)-3-methyl-1,1-dioxo-6-phenyl-thiazinan-2-yl]methyl]phenyl]oxetan-3-yl]amino]methyl]oxazolidin-2-one] stands 56.6 nM; under `C[C@H]1CC[C@H](c2ccccc2)S(=O)(=O)N1Cc1cc(F)c(C2(c3n[nH]c(=O)o3)CC(F)(F)C2)cc1F` [Example 126, 5-[1-[2,5-difluoro-4-[[(3S,6R)-3-methyl-1,1-dioxo-6-phenyl-thiazinan-2-yl]methyl]phenyl]-3,3-difluoro-cyclobutyl]-3H-1,3,4-oxadiazol-2-one], 2.7 nM.

By IC50 is commonly meant the midpoint of a concentration-inhibition curve. A lower IC50 goes with greater potency in that assay.
